How the values were obtained:
[1] = system: panel of 55 breast cancer cell lines; experiment: Cell growth inhibition assay (Cell Titer Glo, 72 h, 9 doses; GI50, TGI, LC50); format: cell-based, human; details: value is the negative log10 of mol/L
[2] = system: luminal, basal, claudin-low and ERBB2AMP breast cancer cell lines; experiment: Associations of clinically relevant subtypes and response (non-parametric ANOVA or t-test on GI50 ranks); format: cell-based, human; details: Table 6; most sensitive subtype, FDR p<0.20
In short: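 Significance was set at FDR p<0.20 after combining p-values across three test sets. Subtype–response associations came from rank-based non-parametric ANOVA or t-tests on GI50. For three-class comparisons, post-hoc tests of each group against the rest identified the most sensitive group, with FDR correction.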

`C=CCNC1=C2C[C@@H](C)C[C@H](OC)[C@H](O)[C@@H](C)/C=C(\C)[C@H](OC(N)=O)[C@@H](OC)/C=C\C=C(/C)C(=O)NC(=CC1=O)C2=O` [17-AAG] showed a GI50 ([1]; 600MPE cell line, censored GI50 values) of 6.87, a GI50 ([1]; AU565 cell line, censored GI50 values) of 7.25 and a GI50 ([1]; BT474 cell line, censored GI50 values) of 7.69. The GI50 ([1]; BT483 cell line, censored GI50 values) was 6.65, the GI50 ([1]; BT549 cell line, censored GI50 values) was 7.47 and the GI50 ([1]; CAMA1 cell line, censored GI50 values) was 6.57. It also gave a GI50 ([1]; HCC38 cell line, censored GI50 values) of 7.23, a GI50 ([1]; HCC70 cell line, censored GI50 values) of 6.62 and a GI50 ([1]; HCC202 cell line, censored GI50 values) of 8.39. It also gave a GI50 ([1]; HCC1143 cell line, censored GI50 values) of 6.86, a GI50 ([1]; HCC1187 cell line, censored GI50 values) of 5.29 and a GI50 ([1]; HCC1395 cell line, censored GI50 values) of 6.54. It also gave a GI50 ([1]; HCC1419 cell line, censored GI50 values) of 7.35, a GI50 ([1]; HCC1428 cell line, censored GI50 values) of 7.70 and a GI50 ([1]; HCC1500 cell line, censored GI50 values) of 6.91. It also gave a GI50 ([1]; HCC1806 cell line, censored GI50 values) of 7.04, a GI50 ([1]; HCC1937 cell line, censored GI50 values) of 6.87 and a GI50 ([1]; HCC1954 cell line, censored GI50 values) of 7.49. It also gave a GI50 ([1]; HCC2185 cell line, censored GI50 values) of 6.93, a GI50 ([1]; HCC3153 cell line, censored GI50 values) of 6.81 and a GI50 ([1]; LY2 cell line, censored GI50 values) of 6.97. For the same compound, the GI50 ([1]; MCF7 cell line, censored GI50 values) was 6.25, the GI50 ([1]; MDAMB134VI cell line, censored GI50 values) was 7.46 and the GI50 ([1]; MDAMB175VII cell line, censored GI50 values) was 7.54. The GI50 ([1]; MDAMB231 cell line, censored GI50 values) was 6.11, the GI50 ([1]; MDAMB361 cell line, censored GI50 values) was 7.24 and the GI50 ([1]; MDAMB415 cell line, censored GI50 values) was 7.30. It also gave a GI50 ([1]; MDAMB436 cell line, censored GI50 values) of 5.96, a GI50 ([1]; MDAMB453 cell line, censored GI50 values) of 7.14 and a GI50 ([1]; MDAMB468 cell line, censored GI50 values) of 5.62. For the same compound, the GI50 ([1]; SKBR3 cell line, censored GI50 values) was 7.50, the GI50 ([1]; SUM44PE cell line, censored GI50 values) was 8.84 and the GI50 ([1]; SUM52PE cell line, censored GI50 values) was 7.46. It also gave a GI50 ([1]; SUM149PT cell line, censored GI50 values) of 7.00, a GI50 ([1]; SUM159PT cell line, censored GI50 values) of 7.46 and a GI50 ([1]; SUM185PE cell line, censored GI50 values) of 7.46. The GI50 ([1]; SUM1315MO2 cell line, censored GI50 values) was 7.66, the GI50 ([1]; UACC893 cell line, censored GI50 values) was 7.90 and the GI50 ([1]; ZR75B cell line, censored GI50 values) was 7.14. The GI50 ([1]; ZR751 cell line, censored GI50 values) was 6.56, the GI50 ([1]; cell line 600MPE) was 6.87 and the GI50 ([1]; cell line AU565) was 7.25. For the same compound, the GI50 ([1]; cell line BT474) was 7.69, the GI50 ([1]; cell line BT483) was 6.65 and the GI50 ([1]; cell line BT549) was 7.47. The GI50 ([1]; cell line CAMA1) was 6.57, the GI50 ([1]; cell line HCC38) was 7.23 and the GI50 ([1]; cell line HCC70) was 6.62. The GI50 ([1]; cell line HCC202) was 8.39, the GI50 ([1]; cell line HCC1143) was 6.86 and the GI50 ([1]; cell line HCC1187) was 5.29. It also gave a GI50 ([1]; cell line HCC1395) of 6.54, a GI50 ([1]; cell line HCC1419) of 7.35 and a GI50 ([1]; cell line HCC1428) of 7.70. For the same compound, the GI50 ([1]; cell line HCC1500) was 6.91, the GI50 ([1]; cell line HCC1806) was 7.04 and the GI50 ([1]; cell line HCC1937) was 6.87. The GI50 ([1]; cell line HCC1954) was 7.49, the GI50 ([1]; cell line HCC2185) was 6.93 and the GI50 ([1]; cell line HCC3153) was 6.81. The GI50 ([1]; cell line LY2) was 6.97, the GI50 ([1]; cell line MCF7) was 6.25 and the GI50 ([1]; cell line MDAMB134V) was 7.46. The GI50 ([1]; cell line MDAMB175V) was 7.54, the GI50 ([1]; cell line MDAMB231) was 6.11 and the GI50 ([1]; cell line MDAMB361) was 7.24. It also gave a GI50 ([1]; cell line MDAMB415) of 7.30, a GI50 ([1]; cell line MDAMB436) of 5.96 and a GI50 ([1]; cell line MDAMB453) of 7.14. It also gave a GI50 ([1]; cell line MDAMB468) of 5.62, a GI50 ([1]; cell line SKBR3) of 7.50 and a GI50 ([1]; cell line SUM44PE) of 8.84. For the same compound, the GI50 ([1]; cell line SUM52PE) was 7.46, the GI50 ([1]; cell line SUM149PT) was 7.00 and the GI50 ([1]; cell line SUM159PT) was 7.46. It also gave a GI50 ([1]; cell line SUM185PE) of 7.46, a GI50 ([1]; cell line SUM1315MO) of 7.66 and a GI50 ([1]; cell line UACC893) of 7.90. The GI50 ([1]; cell line ZR75B) was 7.14, the GI50 ([1]; cell line ZR751) was 6.56 and the Subtype specificity [2] was “Luminal/ERBB2AMP”.

— US10770169B2, “Method of providing a treatment to a subject based on a dynamic pathway map” (THE REGENTS OF THE UNIVERSITY OF CALIFORNIA, priority 2010, dated 2020)
